Patent publication US20160151366A1, “Compositions and Methods for Treating Autism Spectrum Disorders” (Vanderbilt University, priority 2014, published 2016)
Entries after “also recorded” stand apart in the source; their conditions may differ.

Key:
[1] = tested on: SERT Ala56 mice and WT littermates; assay: Biogenic monoamine levels within the CNS by HPLC; assay type: in vivo; details: i.p., QD×1 wk
Description: FIG. 17A-C. […] Respective brain sections were flash frozen and monoamine levels determined by HPLC. […] 5-Hydoxytryptamine (5-HT), Dopamine (DA), Norepinephrine (NE)
FIG. 19A-C. […] Respective brain sections were flash frozen and monoamine levels determined by HPLC. […] 5-Hydoxytryptamine (5-HT), Dopamine (DA), Norepinephrine (NE)
Respective brain sections were flash frozen and monoamine levels determined by HPLC.

SERT Ala56 mice [2] = assay: DOI-induced head twitch (5-HT2A receptor hypersensitivity); assay type: in vivo; details: for CNS 5-HT2A receptor hypersensitivity (DOI-induced head-twitch response): adult SERT Ala56 mice, chronic administration, dose not stated; for SERT Ala56-mediated increases in DOI-induced head twitches: QD×1 wk
Description: Two-Way ANOVA, followed by post-hoc Bonferroni's multiple comparison tests. *p<0.05, **p<0.01
FIG. 20A-B. […] Two-Way ANOVA, followed by post-hoc Bonferroni's multiple comparison tests. **p<0.01, ***p<0.001

SERT Ala56 mice [3] = assay: 8-OH-DPAT-induced hypothermia (5-HT1A receptor hypersensitivity); assay type: in vivo
Description: Similarly, both drugs normalize 5-HT1A receptor hypersensitivity seen in adult SERT Ala56 mice as monitored by 8-OHDPAT induced hypothermia responses. […] […].

IL-1β = details: in vivo treatment; cited from earlier work
[4] = tested on: SERT Ala56 mice and WT counterparts; assay: Midbrain expression of SERT after chronic treatment; assay type: in vivo; details: 10 mg/kg, QD, i.p.×1 wk; SERT Ala56 mice or WT counterparts
SERT Ala56 mice [5] = assay: Tube Test for Social Dominance; assay type: in vivo; details: for SERT Ala56 mediated social deficits in the Tube Test: SERT Ala56 mice; for Effect of treatment on its own in the Tube Test: wildtype mice, chronic treatment 1 week
Description: FIG. 9. […] SERT Ala56 mice display social deficits in the Tube Test compared to their SERT Gly56 littermates.
FIG. 10. […] SERT Ala56 mice display social deficits in the Tube Test compared to their SERT Gly56 littermates.
FIG. 11. […] Chi Square analysis with Yate's Correction. n.s.=not significant, *p<0.05, ***p<0.001
FIG. 12. […] Chi Square analysis with Yate's Correction. n.s.=not significant, *p<0.05, ***p<0.001
Chi Square analysis with Yate's Correction. n.s.=not significant, *p<0.05, ***p<0.001
As described herein, SERT Ala56 mice have deficits in social behaviors in the Tube Test for Social Dominance. Studies were also conducted to determine the effect of specific p38 MAPK inhibitors on social deficits in the animal of ASD. Mice were treated with either saline or a specific p38 MAPK inhibitor for one week.
SERT Ala56 mice display social deficits in the Tube Test compared to their SERT Gly56 littermates.

[6] = chronic 10 mg/kg, i.p., DOI 1.0 mg/kg
[7] = chronic treatment for 1 week, dose not stated

SMILES: CN(C)c1cc(-c2ccncc2)c(-c2ccc3ccccc3c2)nn1 [MW108]
- Biogenic monoamine levels (5-HT, DA, NE) in midbrain, hippocampal or frontal cortex samples ([1]; 10 mg/kg): No differences between genotype or treatment group were found
- CNS 5-HT2A receptor hypersensitivity (DOI-induced head-twitch response) (SERT Ala56 mice [2]): normalize CNS 5-HT2A receptor hypersensitivity
- SERT Ala56-mediated increases in DOI-induced head twitches (SERT Ala56 mice [2]; [6]): dose-dependently attenuates
- SERT Ala56-mediated potentiation of 8-OH-DPAT-induced hypothermia (SERT Ala56 mice [3]; i.p., QD×1 wk, dose not stated): reduced this effect, albeit insignificantly
- LPS-induced increases in IL-1β within the CNS (IL-1β): attenuate lipopolysaccharide (LPS)-induced increases in IL-1β
- Midbrain expression of SERT [4]: No changes in SERT expression
- SERT Ala56 mediated social deficits in the Tube Test (SERT Ala56 mice [5]; 10 mg/kg, i.p., QD×1 wk): dose-dependently attenuate
- SERT Ala56 mediated social deficits in the Tube Test (SERT Ala56 mice [5]; [7]): reverses these social deficits; also recorded: reverse social behavior deficits
- Effect of treatment on its own in the Tube Test (SERT Ala56 mice [5]): no effect on its own; also recorded: Neither dose of MW108 was found to exert any effects on its own; also recorded: Neither dose of MW108 or MW150 was found to exert any effects on their own

SMILES: CN1CCN(c2cc(-c3ccncc3)c(-c3ccc4ccccc4c3)nn2)CC1 [MW150]
- Biogenic monoamine levels (5-HT, DA, NE) in midbrain, hippocampal or frontal cortex samples ([1]; 5 mg/kg): No differences between genotype or treatment group were found
- SERT Ala56-mediated increases in DOI-induced head twitch (SERT Ala56 mice [2]; acute, single treatment 5 mg/kg, i.p., DOI 1.0 mg/kg): not capable of reversing; also recorded: failed to mitigate
- CNS 5-HT2A receptor hypersensitivity (DOI-induced head-twitch response) (SERT Ala56 mice [2]): normalize CNS 5-HT2A receptor hypersensitivity
- SERT Ala56-mediated increases in DOI-induced head twitches (SERT Ala56 mice [2]; chronic 5 mg/kg, i.p., DOI 1.0 mg/kg): mitigates
- SERT Ala56-mediated increases in DOI-induced head twitches (SERT Ala56 mice [2]; [6]): mitigates
- SERT Ala56-mediated potentiation of 8-OH-DPAT-induced hypothermia (SERT Ala56 mice [3]; 5 mg/kg, i.p. QD×1 wk): attenuates
- SERT Ala56-mediated potentiation of 8-OH-DPAT-induced hypothermia (SERT Ala56 mice [3]; 10 mg/kg, i.p. QD×1 wk): attenuates
- SERT Ala56 mediated social deficits in the Tube Test (SERT Ala56 mice [5]; 5 mg/kg, i.p., QD×1 wk): attenuates SERT Ala56-mediated social deficits; also recorded: reverses these social deficits
- SERT Ala56 mediated social deficits in the Tube Test (SERT Ala56 mice [5]; 10 mg/kg, i.p., QD×1 wk): attenuates SERT Ala56-mediated social deficits
- SERT Ala56 mediated social deficits in the Tube Test (SERT Ala56 mice [5]; [7]): reverses these social deficits; also recorded: reverse social behavior deficits
- Effect of treatment on its own in the Tube Test (SERT Ala56 mice [5]): no effects on its own; also recorded: Neither dose of MW150 was found to exert any effects on its own; also recorded: Neither dose of MW108 or MW150 was found to exert any effects on their own
